Source: ChEMBL document CHEMBL1201862, “PubChem BioAssay data set” (2004)
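96-well plates; 48 h exposure; 5 concentrations. Endpoints by linear interpolation between flanking doses. Not reached: highest tested concentration assigned. GI50 marks 50% less growth.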 Active and inactive are the calls of the source. No stated cut-off is given here; in the data, active = GI50 up to about 1.1 µM and inactive = higher.

Assays:
Assay in all cases: growth of human tumour cells (NCI), 48 h
[1] = system: UACC-62
[2] = system: KM-20L2
[3] = system: HT-29
[4] = system: UACC-257
[5] = system: DMS-273
[6] = system: DMS-114
[7] = system: OVCAR-4
[8] = system: Malme-3M
[9] = system: SF-539
[10] = system: HCT-116
[11] = system: M14
[12] = system: HCC 2998
[13] = system: CCRF-CEM
[14] = system: LOX IMVI
[15] = system: NCI-H226
[16] = system: NCI-H460
[17] = system: SK-MEL-5
[18] = system: NCI-H23
[19] = system: XF498
[20] = system: SK-MEL-2
[21] = system: LXFL 529
[22] = system: SF-268
[23] = system: RPMI-8226
[24] = system: HL-60
[25] = system: HCT-15
[26] = system: UO-31
[27] = system: SN12C
[28] = system: SW-620
[29] = system: CAKI-1
[30] = system: IGROV-1
[31] = system: SNB-78
[32] = system: A498
[33] = system: DLD-1
[34] = system: HOP-92
[35] = system: SNB-75
[36] = system: RXF 393
[37] = system: EKVX
[38] = system: SK-MEL-28
[39] = system: COLO 205
[40] = system: MOLT-4
[41] = system: KM12
[42] = system: OVCAR-5
[43] = system: SR
[44] = system: 786-0
[45] = system: K562
[46] = system: SNB-19
[47] = system: SK-OV-3
[48] = system: A549
[49] = system: TK-10
[50] = system: HOP-18
[51] = system: OVCAR-3
[52] = system: HOP-62
[53] = system: OVCAR-8
[54] = system: ACHN
[55] = system: U-251
[56] = system: NCI-H522
[57] = system: SF-295
[58] = system: MDA-N
[59] = system: MDA-MB-435
[60] = system: Hs-578T
[61] = system: MDA-MB-231
[62] = system: NCI/ADR-RES
[63] = system: BT-549
[64] = system: M19-MEL
[65] = system: DU-145
[66] = system: T47D
[67] = system: MCF7
[68] = system: PC-3

Structure (SMILES): CCC(C)(O)c1cn(-c2cccc(S(=O)(=O)O)c2)nn1 (stereo not drawn)
- GI50 [1]: > 100 µM (inactive)
- GI50 [2]: > 100 µM (inactive)
- GI50 [3]: > 100 µM (inactive)
- GI50 [4]: > 100 µM (inactive)
- GI50 [5]: > 100 µM (inactive)
- GI50 [6]: > 100 µM (inactive)
- GI50 [7]: > 100 µM (inactive)
- GI50 [8]: > 100 µM (inactive)
- GI50 [9]: > 100 µM (inactive)
- GI50 [10]: > 100 µM (inactive)
- GI50 [11]: > 100 µM (inactive)
- GI50 [12]: > 100 µM (inactive)
- GI50 [13]: > 100 µM (inactive)
- GI50 [14]: > 100 µM (inactive)
- GI50 [15]: > 100 µM (inactive)
- GI50 [16]: > 100 µM (inactive)
- GI50 [17]: > 100 µM (inactive)
- GI50 [18]: > 100 µM (inactive)
- GI50 [19]: > 100 µM (inactive)
- GI50 [20]: > 100 µM (inactive)
- GI50 [21]: > 100 µM (inactive)
- GI50 [22]: > 100 µM (inactive)
- GI50 [23]: > 100 µM (inactive)
- GI50 [24]: > 100 µM (inactive)
- GI50 [25]: > 100 µM
- GI50 [26]: > 100 µM (inactive)
- GI50 [27]: > 100 µM (inactive)
- GI50 [28]: > 100 µM (inactive)
- GI50 [29]: > 100 µM (inactive)
- GI50 [30]: > 100 µM (inactive)
- GI50 [31]: > 100 µM (inactive)
- GI50 [32]: > 100 µM (inactive)
- GI50 [33]: > 100 µM (inactive)
- GI50 [34]: > 100 µM (inactive)
- GI50 [35]: > 100 µM (inactive)
- GI50 [36]: > 100 µM (inactive)
- GI50 [37]: > 100 µM (inactive)
- GI50 [38]: > 100 µM (inactive)
- GI50 [39]: > 100 µM (inactive)
- GI50 [40]: > 100 µM (inactive)
- GI50 [41]: > 100 µM (inactive)
- GI50 [42]: > 100 µM (inactive)
- GI50 [43]: > 100 µM (inactive)
- GI50 [44]: > 100 µM (inactive)
- GI50 [45]: > 100 µM (inactive)
- GI50 [46]: > 100 µM (inactive)
- GI50 [47]: > 100 µM (inactive)
- GI50 [48]: > 100 µM (inactive)
- GI50 [49]: > 100 µM (inactive)
- GI50 [50]: > 100 µM (inactive)
- GI50 [51]: > 100 µM (inactive)
- GI50 [52]: > 100 µM (inactive)
- GI50 [53]: > 100 µM (inactive)
- GI50 [54]: > 100 µM (inactive)
- GI50 [55]: > 100 µM (inactive)
- GI50 [56]: > 100 µM (inactive)
- GI50 [57]: > 100 µM (inactive)

Structure (SMILES): COc1cccc2c1C(=O)c1c(O)c3c(c(O)c1C2=O)C[C@@](O)(C(C)=O)C[C@@H]3OC1CC(N(Cc2ccccc2)Cc2ccccc2)C(O)C(C)O1 (stereo partly drawn)
- GI50 [1]: 16.6 µM (inactive)
- GI50 [2]: 24.9 µM (inactive)
- GI50 [3]: 0.474 µM (active)
- GI50 [4]: 26.4 µM (inactive)
- GI50 [5]: 3.78 µM (inactive)
- GI50 [58]: 11.4 µM (inactive)
- GI50 [59]: 4.53 µM (inactive)
- GI50 [6]: 39.8 µM (inactive)
- GI50 [7]: 15.1 µM (inactive)
- GI50 [8]: 13.3 µM (inactive)
- GI50 [9]: 10.9 µM (inactive)
- GI50 [10]: 1.84 µM (inactive)
- GI50 [11]: 2.27 µM (inactive)
- GI50 [12]: 29.4 µM (inactive)
- GI50 [60]: 16.9 µM (inactive)
- GI50 [13]: 2.43 µM (inactive)
- GI50 [14]: 5 µM (inactive)
- GI50 [15]: 13.1 µM (inactive)
- GI50 [16]: 0.653 µM (active)
- GI50 [17]: 14.6 µM (inactive)
- GI50 [18]: 18.6 µM (inactive)
- GI50 [61]: 10.9 µM (inactive)
- GI50 [20]: 16.8 µM (inactive)
- GI50 [21]: 0.69 µM (active)
- GI50 [62]: 10.3 µM (inactive)
- GI50 [22]: 14.2 µM (inactive)
- GI50 [23]: 4.62 µM (inactive)
- GI50 [63]: > 27.5 µM (inactive)
- GI50 [24]: 9.55 µM (inactive)
- GI50 [25]: 4.95 µM
- GI50 [26]: 15 µM (inactive)
- GI50 [27]: 8.09 µM (inactive)
- GI50 [28]: 4.69 µM (inactive)
- GI50 [29]: 6.03 µM (inactive)
- GI50 [30]: 9.55 µM (inactive)
- GI50 [31]: 2.56 µM (inactive)
- GI50 [32]: 28.5 µM (inactive)
- GI50 [33]: 10.1 µM (inactive)
- GI50 [34]: 17.8 µM (inactive)
- GI50 [64]: 23.2 µM (inactive)
- GI50 [35]: 30.1 µM (inactive)
- GI50 [36]: 30.6 µM (inactive)
- GI50 [37]: 39.4 µM (inactive)
- GI50 [38]: 32.8 µM (inactive)
- GI50 [39]: 14.6 µM (inactive)
- GI50 [65]: 14.1 µM (inactive)
- GI50 [41]: 13.1 µM (inactive)
- GI50 [42]: 20.5 µM (inactive)
- GI50 [43]: 0.101 µM (active)
- GI50 [44]: 0.713 µM (active)
- GI50 [45]: 3.64 µM (inactive)
- GI50 [46]: 21.7 µM (inactive)
- GI50 [47]: 34 µM (inactive)
- GI50 [48]: 4.55 µM (inactive)
- GI50 [66]: 11.9 µM (inactive)
- GI50 [49]: 13.7 µM (inactive)
- GI50 [50]: > 45.5 µM (inactive)
- GI50 [51]: 22.8 µM (inactive)
- GI50 [52]: 18.8 µM (inactive)
- GI50 [53]: 4.89 µM (inactive)
- GI50 [54]: 0.51 µM (active)
- GI50 [55]: 13.4 µM (inactive)
- GI50 [67]: 12.4 µM (inactive)
- GI50 [68]: 6.61 µM (inactive)
- GI50 [56]: 10.4 µM (inactive)
- GI50 [57]: 13.6 µM (inactive)
